Test: in vitro
Conditions: human, hela cells, % viability

| Structure (SMILES) | viability at 28.5 h, 10 µM |
| --- | --- |
| O=C(NC(Cc1cccs1)c1nccs1)c1ccncc1 (centres unmarked) [CBK285134] | 93.9% |
| Cn1ncnc1COc1ccc(S(=O)(=O)N2CCCCC2CN)cc1 (centres unmarked) [CBK304313C] | 82.3% |
| O=C(Nc1ccccc1N1CCN(C(=O)c2ccccc2)CC1)c1cccnc1 [CBK269948] | 100% |
| O=C(CCN1C(=O)c2ccc(Br)cc2C1=O)N1CCN(Cc2ccccc2)CC1 [CBK269238] | 104% |
| CS(=O)(=O)N1CC2(CCN(Cc3cc(=O)[nH]c(=O)[nH]3)CC2)c2ccccc21 [CBK126679] | 103% |
| O=S1(=O)N=C(c2cccs2)C=C(C(F)(F)F)N1 [CBK019309] | 106% |
| O=C1COc2ccccc2CCCC[C@@H]2CNCC[C@H]2N1 [CBK292038] | 105% |
| Cc1ccccc1-c1nnc(SC(C)C)n1CCN(C)CC(F)(F)F [CBK200090] | 92.3% |
| Nc1nc2ccccc2n1/N=C/c1ccc([N+](=O)[O-])cc1 [CBK262239] | 88% |
| CS(=O)(=O)Nc1ccc(-c2ccccc2)c2ccccc12 [CBK083741] | 93.2% |
| CSCCC(=O)N1CCN(c2ncccn2)CC1 [CBK144509] | 90.3% |
| Fc1ccccc1COc1cccc(CNCCN2CCOCC2)c1 [CBK278148C] | 102% |
| O=C(NCC1CCCCC1)N1CCN(c2cc(C(F)(F)F)ccn2)CC1 [CBK162323] | 103% |
| CCc1nn(CC(=O)NC(C)C)c(=O)c2cc3ccsc3n12 [CBK284131] | 82.6% |
| O=C(CN(C(=O)CNC(=O)c1cccs1)c1cccc(C(F)(F)F)c1)NC1CCCCC1 [CBK084697] | 94.5% |
| CC(=O)Nc1cccc(NC(=O)c2cc(-c3ccccc3)nn2-c2ccccc2)c1 [CBK296997] | 90.1% |
| CC(C)(C)C1=CC2=NC3(CCC3)C3C[C@@H](O)[C@@H](O)[C@]3(COCc3ccccc3)N2O1 (some centres unmarked) [CBK303260] | 99.6% |
| CS(=O)(=O)c1ccc(-c2c[nH]c([C@@H]3COCCN3C3CCCCC3)n2)cc1 [CBK289299] | 102% |
| O=S(=O)(Nc1cccnc1N1CCOCC1)c1ccc(F)cc1 [CBK051009] | 96.4% |
| CNC(=O)c1oc(-c2ccc(OC)cc2)c(-c2ccc(OC)cc2)c1C(=O)NC [CBK001956] | 90.9% |
| CCc1noc(CN2CCN(c3ccc(C(=O)OC)cc3)CC2C)n1 (centres unmarked) [CBK306154] | 86.4% |
| O=C(NC(=S)Nc1ccc(-c2nc3ncccc3o2)cc1)c1ccc2c(c1)OCCO2 [CBK265812] | 96.4% |
| Cc1ccc2nc(SCC(=O)Nc3ccccc3Br)c(C#N)cc2c1 [CBK068169] | 94.4% |

| Structure (SMILES) | viability at 28.5 h, 10 µM |
| --- | --- |
| OCCn1ncc2c(Nc3cccc(Cn4cncn4)c3)ncnc21 [CBK305965] | 115% |
| Cc1cccn2cc(CC(=O)NCCNC(=O)OC(C)(C)C)nc12 [CBK306122] | 100% |
| C=C(C)CN1CCN(C(=O)c2[nH]c3ccc(OCC)cc3c2C)CC1 [CBK282666] | 96.7% |
| Cn1cc(C2CCCCCN2C(=O)c2cccc(F)c2)cn1 (centres unmarked) [CBK284970] | 102% |
| CN1CCOCC(CNC(=O)c2ccc(-c3ccccc3CO)cc2)C1 (centres unmarked) [CBK307601] | 91.1% |
| O=C(NCCNC1CCC(c2ccccc2)CC1)c1ccc(F)cc1 (centres unmarked) [CBK266857] | 88.2% |
| COC(=O)C(CCSC)NC(=O)c1ccc(C(F)(F)F)cc1 (centres unmarked) [CBK057452] | 91.9% |
| CC(Cn1cc(Cl)cn1)C(=O)NCCN(C)C1CCCCC1 (centres unmarked) [CBK282041] | 86.1% |
| CCN(CC)CCn1c(=N)n(CC(=O)c2cccs2)c2ccccc21 [CBK278240B] | 85.1% |
| O=C(CSc1ncn(-c2ccccc2)n1)c1ccc(Br)cc1 [CBK027014] | 91.6% |
| CCOC(=O)C1CCN(S(=O)(=O)c2cccc3cccnc23)CC1 [CBK051242] | 92.5% |
| Cc1cc(C)c(C)c(OCCCNC(=O)Cc2c(C)noc2C)c1 [CBK281506] | 100% |
| Cn1nccc1NS(=O)(=O)c1cccc2cccnc12 [CBK062069] | 98.9% |
| COc1ccc2[nH]c3c(c2c1)CCNC31CCCN(CCc2ccc(F)cc2)C1 (centres unmarked) [CBK039246] | 90.9% |
| CC(=O)Nc1cccc(-c2cnc(N(C)S(C)(=O)=O)c(C(=O)NCc3ccc4c(c3)CCO4)c2)c1 [CBK076609] | 99.7% |
| Clc1cc(Cl)cc(-c2cn3ccnc3c(NCc3ccncc3)n2)c1 [CBK066664] | 94.3% |
| CC(=O)N1C[C@H]2CCCN(S(=O)(=O)c3cccs3)[C@H]2C1 [CBK285275] | 84.3% |
| Cc1nc2sccn2c1-c1csc(Nc2cccc(C(=O)O)c2)n1 [CBK263291B] | 91.9% |
| CC1CCC2(CC1)NC(=O)N(Cc1coc(-c3ccccc3)n1)C2=O (centres unmarked) [CBK306196] | 98.3% |
| N#Cc1c(F)cccc1NCc1cccnc1 [CBK057053] | 116% |
| CC1(C)CC(=O)C2=C(C1)Nc1ncnn1C2c1ccccc1F (centres unmarked) [CBK266446] | 88% |
| Cc1ccc(F)c(OC2(C(=O)O)CCN(Cc3cccc(C)n3)CC2)c1 [CBK306541] | 98.8% |
| COc1ccc(Nc2cc(Cl)ccc2C(=O)N2CCN(c3ncccn3)CC2)cn1 [CBK107334] | 89.9% |

| Structure (SMILES) | viability at 28.5 h, 10 µM |
| --- | --- |
| CC(Cn1cccn1)NCc1cn(C)c2cc(F)ccc12 (centres unmarked) [CBK282220] | 88.4% |
| CCOc1ccc(NC(=O)N(CCOC)Cc2cnn(C)c2)cc1Cl [CBK306697] | 90.3% |
| CCN(CC)C(=O)CN1CCC(Oc2nccnc2OCc2cc(C)on2)CC1 [CBK082959T] | 102% |
| CCc1cccc2c(CC(=O)NC3CCCOC3)c(C)[nH]c12 (centres unmarked) [CBK282584] | 105% |
| Cc1nc2ccccc2n1CC(=O)N(Cc1cccnc1)C1CC1 [CBK305248] | 109% |
| CCC(Sc1nccn1C)C(=O)Nc1ccc(S(N)(=O)=O)cc1 (centres unmarked) [CBK058413] | 107% |
| Cn1c(N2CCCC(C(N)=O)C2)nc2ccccc21 (centres unmarked) [CBK282372] | 105% |
| NC(=O)c1ccc(NC(=O)N2CCN(CCc3ccccc3)CC2)cc1 [CBK158924] | 95.3% |
| Cc1ccc(-c2nnc(CNC(=O)Cc3ccccc3Cl)o2)s1 [CBK284648] | 85.2% |
| COc1ccc(OC)c(S(=O)(=O)N2CCN(c3ncccn3)CC2)c1 [CBK008662] | 92.7% |
| CCS(=O)(=O)N1CCC(C(=O)NC2CC(C)(C)Oc3ccccc32)CC1 (centres unmarked) [CBK304364] | 90.1% |
| COc1ccccc1NCc1c(O)c(Br)cc2oc3c(c12)CCCC3 [CBK160398] | 93.4% |
| CC(=O)N[C@H]1CO[C@H]2[C@@H]1OC[C@@H]2n1nnnc1Oc1ccc(-n2ccnc2)cc1 [CBK289487] | 104% |
| Nc1ncc2ncn([C@H]3C[C@@H](O)[C@@H](CO)O3)c2n1 [CBK201303] | 102% |
| COCCn1c(=O)n(Cc2ccccc2F)c2cccnc21 [CBK283965] | 88.6% |
| Cc1ccc(S(=O)(=O)N2CCOCC2)cc1-c1cncc(-c2ccc(O)cc2)n1 [CBK123789] | 103% |
| Cc1ccc(C(=O)NCc2ccco2)c(N2CCOCC2)n1 [CBK076410] | 89.9% |
| CC1(OCCN2CCOCC2)SC(NC2CC3CCC2C3)=NC1=O (centres unmarked) [CBK116313] | 83.8% |
| O=S1(=O)CCN(Cc2cn(-c3ccccc3)nn2)CC1 [CBK113103] | 88.9% |
| Cc1cc(C)nc(NC2=NC3CCCCC3N2C(=O)Nc2ccc(Cl)c(Cl)c2)n1 (centres unmarked) [CBK266458] | 97.5% |
| O=C1NC2(CCCCC2)C(=O)N1c1ccc(F)cc1F [CBK281945] | 111% |
| O=C(N/N=C/c1c[nH]nc1-c1ccccc1)c1cccnc1 [CBK262461] | 101% |
| CSCCN1CCC(C(=O)c2ccc(F)cc2)CC1 [CBK149145] | 89.4% |

| Structure (SMILES) | viability at 28.5 h, 10 µM |
| --- | --- |
| CC1=NN(c2nc(-c3ccc(Br)cc3)cs2)C(=O)C1/N=N/c1ccc(C(=O)O)cc1 (centres unmarked) [CBK262435] | 86.7% |
| CN1CCN(Cc2ccccc2[N+](=O)[O-])CC1 [CBK261524] | 85.5% |
| CN1CCN([C@H]2[C@@H]3OC[C@@H](O3)[C@@H](NCc3ccc(N(C)C)cc3)[C@@H]2O)CC1 [CBK288824] | 109% |
| O=C(Cc1csc(NS(=O)(=O)c2ccc(-c3cccc([N+](=O)[O-])c3)cc2)n1)N1CCOCC1 [CBK200032] | 110% |
| Fc1ccc(CCN2CCC(Oc3nccnc3OCCN3CCOCC3)CC2)cc1 [CBK082937T] | 88.3% |
| O=C1NC(=O)C(CCCCN2CCC(Cc3ccccc3)CC2)N1 (centres unmarked) [CBK126435] | 91.8% |
| COc1ccc(C(NC(=O)c2ccc(N3C(=O)CCC3=O)cc2)c2ccccc2)cc1 (centres unmarked) [CBK285737] | 93% |
| CCCCNC(=S)N[C@H]1CC[C@@]2(C3=CC=CC4C=CC=CC34)CCN(C)[C@H]2C1 (some centres unmarked) [CBK003610C] | 101% |
| CC1(c2cc(F)ccc2F)NC(=O)N(c2ccncc2)C1=O (centres unmarked) [CBK291253] | 92.9% |
| COC(=O)COc1nccnc1-c1ccc(OC(F)(F)F)cc1 [CBK106849] | 90.4% |
| CCOc1cc(C(=S)N2CCN(C)CC2)ccc1OCC(=O)N1CCOCC1 [CBK266856] | 101% |
| O=S(=O)(/N=C(/c1ccc(Cl)cc1)N1CCOCC1)c1ccccc1 [CBK293950] | 93.5% |
| Fc1ccc(CN2C3CCCC2CC(NC(=S)NC2CCCCC2)C3)cc1 (centres unmarked) [CBK121172] | 90% |
| NCCNC(=O)c1cc(-c2ccc(Cl)cc2)[nH]n1 [CBK160975] | 110% |
| CCn1c2ccccc2c2cc(CN(CCN(C)C)Cc3ccccc3)ccc21 [CBK261924] | 102% |
| CCc1cccc(NC(=O)NCCC2=CCCCC2)c1 [CBK045009] | 108% |
| O=C(NC(c1ccccc1)c1ccsc1)C1CCN(C2Cc3ccccc3C2)CC1 (centres unmarked) [CBK148541] | 80% |
| COc1ccc(CNC(=O)C2CCCN(S(=O)(=O)c3cccs3)C2)cc1 (centres unmarked) [CBK304628] | 95.8% |
| CC(=O)c1ccc(CN2CCCN(S(=O)(=O)c3ccc(C(F)(F)F)cc3Cl)CC2)cc1 [CBK063106] | 104% |
| CC(=O)c1c(C)c2c(=O)n3c(nc2[nH]c1=O)CCC3 [CBK287872] | 93.6% |

— publication PMC12040169 (PLOS Biology, 2025)
